Measured values reported in PMC6747274, “Multifunctional Peptides from Spanish Dry-Cured Pork Ham: Endothelial Responses and Molecular Modeling Studies” (International Journal of Molecular Sciences, 2019).
Where no end group is shown, it is not given here.

What was measured:
Format in all cases: cell-based, human
[1] = test system: VCAM-1 mRNA, EA.hy926 cells; assay: VCAM-1 mRNA expression by RT-PCR in EA.hy926 cells; conditions: 300 µM peptide 16 h, then 100 ng/mL TNF-α 6 h; p = 0.01 (BP2), 0.03 (BP3), 0.02 (BP4)
Experimental: (§1) EA.hy926 cells, the hybrid human umbilical vein endothelial cell line, were obtained from the American Type Culture Collection (ATCC® CRL2922™, Rockville, MD, USA). Cells were cultured in high glucose Dulbecco’s Modified Eagle’s Medium (DMEM), containing 10% heat-inactivated fetal bovine serum (FBS, Biowest, Riverside, CA, USA) and 50 U/mL of penicillin and 50 µg/mL streptomycin (Sigma Aldrich Chemical Co., Saint Louis, MO, USA). Cells were grown in 5% CO2 in a humidified air incubator at 37 °C. Subculture was performed when 90% confluence was reached.
(§2) EA.hy926 were seeded in six-well plates at 0.25 × 10^6 cells/well in DMEM supplemented with 5% FBS. Cells were treated with 300 µM of each peptide for 16 h. Then, 100 ng/mL TNF-α or 300 µM H2O2 were added for an additional 6 h or 24 h, respectively.
Total RNA was extracted from EA.hy926 cells using 300 µL Trisure™ (Bioline, Taunton, MA, USA) reagent and Direct-zol™ RNA MiniPrep (Zymo Research Irvine, Irvine, CA, USA) according to the manufacturer’s protocol. Total RNA was reverse-transcribed into complementary DNA (Sensifast cDNATM Synthesis kit, Bioline, Taunton, MA, USA). The mRNA levels of the target genes were quantified by RT-PCR using SensiFAST SYBER Hi-ROX Kit (Bioline, Taunton, MA, USA) with StepOnePlus Real-Time PCR System (Applied Biosystems, Foster City, CA, USA). Briefly, 5 µL of 1:5 diluted cDNA was added to the qPCR reaction containing 10 μL 2X SensiFAST Mix and 400 nM of each primer in a total volume of 20 μL.
Specific and validated primers for human glyceraldehyde-3-phosphate dehydrogenase (GADPH), intercellular adhesion marker-1 (ICAM-1), vascular cell adhesion marker-1 (VCAM-1), endothelial nitric oxide synthase (eNOS), interleukin 6 (IL-6), catalase, SOD (Super Oxide Dismutase), NADPH (Nicotinamide Adenine Dinucleotide Phosphate oxidase) and Bax (proapoptosis regulator) genes were used (Sigma-Aldrich Chemical Co., Saint Louis, MO, USA). […]
The relative quantification of gene expression was determined by the comparative fold change […] method. […]

NF-κB, EA.hy926 cells = assay: NF-κB dual luciferase reporter assay; conditions: 300 µM peptide 16 h, then 50 ng/mL TNF-α 6 h
Experimental: To evaluate whether the synthetic peptides could modulate the NF-κB biological activity, a luciferase reporter assay was carried out, using the Renilla reporter as a specificity control and indicator of cell proliferation. In this study, NF-B activity was induced at a lower concentration of TNF-α (50 ng/mL) because of the high sensitivity of the approach. The normalized firefly/Renilla luciferase activity was reduced by around 25% of the activity when cells were pretreated with the BP1 (p = 0.002), BP2 (p = 0.003), and BP3 (p = 0.003) synthetic peptides (Figure 3). […] The basal activity for NF-κB was not inhibited by synthetic peptides without TNF-α stimulation (data not shown).
The dual luciferase assay has been widely used in cell lines to rapidly and accurately determine the activity of the promoter of NF-κB. […]
For luciferase reporter assays, 80,000 cells/well were seeded in 24-well plates overnight, followed by cotransfection with 0.5 μg pNF-κB:Luc/pRL-CMV at a ratio of 10:1 using 1.5 μL trans-it X2 reagent (Myrus®, Madison, WI, USA). […] NF-κB-dependent firefly luciferase activity and NF-κB-independent Renilla luciferase activity were assessed using Dual-Luciferase® Reporter Assay System (Promega, Madison, WI, USA) in a Luminometer Optocomp I (MGM Instruments). […]

EA.hy926 cells = assay: Annexin V / propidium iodide apoptosis and necrosis by FACS; conditions: preincubation with 300 µM peptide, then 300 µM H2O2; three independent experiments, mean ± SD; NS vs H2O2 alone
Experimental: as §2
ApoScreen Annexin V Apoptosis Kit-FITC (Southern Biotech, Birmingham, AL, USA) was used to detect the apoptosis rate. After the co-incubation of synthetic peptides and 300 µM H2O2, 0.4 × 10^6 cells were detached and washed in cold PBS, then resuspended in 100 µL Annexin V binding buffer and treated following the manufacturer’s protocol. Annexin V-fluorescein isothiocyanate (FITC) binding was assessed in FL1 channel simultaneously with propidium iodide (FL2 channel). This test discriminates among intact cells (FITC−/PI−), apoptotic cells (FITC+/PI−), and necrotic cells (FITC+/PI+). Assays were performed in triplicate (Table S1).

[2] = test system: ICAM-1 surface expression, EA.hy926 cells; assay: ICAM-1 surface expression by flow cytometry (MFI); conditions: for ICAM-1 surface density (in words): 300 µM peptide + TNF-α vs TNF-α activated cells, all p < 0.05; for ICAM-1 MFI: preincubation with 300 µM peptide, then 100 ng/mL TNF-α, six independent experiments, mean ± SD, p vs TNF-α: BP1 0.03, BP2 0.009, BP3 0.09, BP4 0.04, control 71.36 ± 8.31
Experimental: as §1, §2
To measure adhesion molecule content in human endothelial cells by flow cytometry, the cell monolayer was detached and fixed before immunofluorescence labelling. The following antibodies were used per sample: 20 µL anti-ICAM-1/CD54-phycoerythrin (PE) (clone HA58, BD Biosciences, Franklin Lakes, NJ, USA) and 5 µL anti-VCAM-1/CD106-PerCP-Cy5.5 (clone 51–10C9; BD Biosciences, San Jose, CA, USA), according to the manufacturer’s protocol. Stained cells (10,000 events) were examined by flow cytometry (FACS Calibur, Becton Dickinson, Mountain View, CA, USA) in a simultaneous two-color analysis with FL2 (PE) and FL3 (PerCP-Cy5.5) channels. Markers were set according to the negative controls to quantify the percentage of positively stained cells. Mean Fluorescence Intensity (MFI) was calculated for each antigen (MFI of total stained cells-MFI of negative control cells).

| Substance | VCAM-1 mRNA expression vs TNF-α stimulated cells [1] | NF-κB activation (in words) (NF-κB, EA.hy926 cells; BP4 p = 0.012) | Apoptosis (AnV+/PI-), % cells (EA.hy926 cells) [%] | Necrosis (AnV+/PI+), % cells (EA.hy926 cells) [%] | ICAM-1 surface density (in words) [2] | ICAM-1 MFI [2] | reduction of normalized firefly/Renilla NF-κB luciferase activity (NF-κB, EA.hy926 cells; vs TNF-α, p = 0.002 (BP1), 0.003 (BP2), 0.003 (BP3), three independent experiments) |
| --- | --- | --- | --- | --- | --- | --- | --- |
| AAATP [BP4] | downregulated | repressed by BP4 to a lesser degree | 12.16 ± 1.86 | 18.42 ± 6.34 | reduced ICAM-1 surface density | 926.01 ± 152.46 | – |
| KAAAATP [BP2] | downregulated | – | 14.47 ± 2.42 | 19.58 ± 0.18 | reduced ICAM-1 surface density | 1064.42 ± 32.02 | around 25% |
